{
  "source": "patent US8507674B2",
  "about": "“Quorum sensing inhibitor” (The University of Tokyo, priority 2007, dated 2013)",
  "key": {"Burkholderia glumae [1]": {"test_system": "Burkholderia glumae", "assay": "Test Example 1: production of QS signal molecules C6-HSL and C8-HSL (TLC, CV026 violacein detection)", "type": "cell-based", "protocol": "Burkholderia glumae was inoculated into an LB culture medium (produced by BD) (Difco LB Broth: containing tryptone (10.0 g), yeast extract (5.0 g), and sodium chloride (10.0 g)), and cultured at 37° C. overnight. The thus-cultured broth was subjected to bacterial collection using a centrifuge, washed with an LB culture medium twice using a fresh LB culture medium each time. […] Each of the broths was filtered by a membrane filter (0.22 μm). 0.5 mL of ethyl acetate was added to 0.5 mL of supernate from which bacteria were removed, and then the quorum sensing (QS) signal molecules were extracted using ethyl acetate. The thus-obtained ethyl acetate layer was concentrated under reduced pressure, and the residue was re-dissolved in 20 μL of methanol, producing a test liquid.\nThe test liquid (1 μL) was spotted on TLC to separate C6-HSL and C8-HSL, which are QS signal molecules, under the condition of developing solvent: methanol/water=70/30. After the development, a TLC plate was well dried and a culture solution containing QS signal molecule detection bacteria (Chromobacterium violaceum CV026 strain) that had been pre-cultured in an LB culture medium and agar was applied to the TLC plate, followed by the detection of C6-HSL and C8-HSL. Chromobacterium violaceum is known as a bacterium that produces purple pigment (violacein) using the QS; therefore, the CV026 strain can be used to detect QS signal molecules (Microbiology, (1997), 143, 3703-3711, (2004), 54(4), 921-934, (2007), 64(1), 165-179). After applying the detected bacteria to the TLC plate, the TLC plate was subjected to overnight cultivation at 28° C. and then detection using violacein. For quantitative determination, calibration curves showing the violacein production from C6-HSL and C8-HSL that had been chemically synthesized were obtained. From the calibration curves, the production amounts of the QS signal molecules of each compound were obtained."}, "Burkholderia glumae [2]": {"test_system": "Burkholderia glumae", "assay": "Test Example 6: onset of infection on rice, test liquid sprayed after infection", "type": "in vivo", "details": "for percentage of flower clusters with score 0: score 0 = less than 0.1% diseased; for percentage of flower clusters with score 0 / percentage of flower clusters with score 1 / percentage of flower clusters with score 2 / percentage of flower clusters with score 3 / percentage of flower clusters with score 4 / percentage of flower clusters with score 5: rice, 7 days; for percentage of flower clusters with score 1: score 1 = 0.1-20% diseased; for percentage of flower clusters with score 2: score 2 = 20-40% diseased; for percentage of flower clusters with score 3: score 3 = 40-60% diseased; for percentage of flower clusters with score 4: score 4 = 60-80% diseased; for percentage of flower clusters with score 5: score 5 = 80-100% diseased", "protocol": "A test liquid and a culture solution for infection were prepared in the same manner as in Test Example 5, and the culture solution for infection was sprayed onto Korean rice (Milyang 23) raised in a hothouse until the flowering stage. One hour after the spraying, each test liquid (10 mL) was sprayed onto the rice. After cultivation for seven days, the onset of Burkholderia glumae infection on the rice was evaluated in the same manner as in Test Example 4. The same evaluation was conducted as the comparative test in the same manner except that water was used instead of the test liquid. Further, the same evaluation was conducted to serve as a blank using water instead of both the test liquid and the culture solution for infection."}, "[3]": {"details": "40 μM compound, 12 hours shake culturing"}, "[4]": {"details": "40 μM compound, 24 hours shake culturing"}, "[5]": {"details": "60 μM compound, 12 hours shake culturing"}, "[6]": {"details": "60 μM compound, 24 hours shake culturing"}, "[7]": {"details": "50 μM sprayed 1 h after infection"}, "[8]": {"details": "100 μM sprayed 1 h after infection"}, "[9]": {"details": "200 μM sprayed 1 h after infection"}},
  "data": [
    {"smiles": "CCCc1cc(=O)n2cccc(O)c2n1", "note": "[Compound (1), 2-n-propyl-9-hydroxy-4H-pyrid[1,2-a]pyrimidin-4-one]", "values": [
      {"measurement": "C6-HSL", "setting": "Burkholderia glumae [1]; [3]", "result": 163, "unit": "ng/mL"},
      {"measurement": "C8-HSL", "setting": "Burkholderia glumae [1]; [3]", "result": 14, "unit": "µg/mL"},
      {"measurement": "C6-HSL", "setting": "Burkholderia glumae [1]; [4]", "result": 0, "unit": "ng/mL"},
      {"measurement": "C8-HSL", "setting": "Burkholderia glumae [1]; [4]", "result": 0, "unit": "µg/mL"},
      {"measurement": "C6-HSL", "setting": "Burkholderia glumae [1]; [5]", "result": 167, "unit": "ng/mL"},
      {"measurement": "C8-HSL", "setting": "Burkholderia glumae [1]; [5]", "result": 13, "unit": "µg/mL"},
      {"measurement": "C6-HSL", "setting": "Burkholderia glumae [1]; [6]", "result": 0, "unit": "ng/mL"},
      {"measurement": "C8-HSL", "setting": "Burkholderia glumae [1]; [6]", "result": 0, "unit": "µg/mL"},
      {"measurement": "percentage of flower clusters with score 0", "setting": "Burkholderia glumae [2]; [7]", "result": 88, "unit": "%"},
      {"measurement": "percentage of flower clusters with score 0", "setting": "Burkholderia glumae [2]; [8]", "result": 85, "unit": "%"},
      {"measurement": "percentage of flower clusters with score 0", "setting": "Burkholderia glumae [2]; [9]", "result": 89, "unit": "%"},
      {"measurement": "percentage of flower clusters with score 1", "setting": "Burkholderia glumae [2]; [7]", "result": 2, "unit": "%"},
      {"measurement": "percentage of flower clusters with score 1", "setting": "Burkholderia glumae [2]; [8]", "result": 5, "unit": "%"},
      {"measurement": "percentage of flower clusters with score 1", "setting": "Burkholderia glumae [2]; [9]", "result": 3, "unit": "%"},
      {"measurement": "percentage of flower clusters with score 2", "setting": "Burkholderia glumae [2]; [7]", "result": 4, "unit": "%"},
      {"measurement": "percentage of flower clusters with score 2", "setting": "Burkholderia glumae [2]; [8]", "result": 3, "unit": "%"},
      {"measurement": "percentage of flower clusters with score 2", "setting": "Burkholderia glumae [2]; [9]", "result": 3, "unit": "%"},
      {"measurement": "percentage of flower clusters with score 3", "setting": "Burkholderia glumae [2]; [7]", "result": 2, "unit": "%"},
      {"measurement": "percentage of flower clusters with score 3", "setting": "Burkholderia glumae [2]; [8]", "result": 3, "unit": "%"},
      {"measurement": "percentage of flower clusters with score 3", "setting": "Burkholderia glumae [2]; [9]", "result": 2, "unit": "%"},
      {"measurement": "percentage of flower clusters with score 4", "setting": "Burkholderia glumae [2]; [7]", "result": 2, "unit": "%"},
      {"measurement": "percentage of flower clusters with score 4", "setting": "Burkholderia glumae [2]; [8]", "result": 2, "unit": "%"},
      {"measurement": "percentage of flower clusters with score 4", "setting": "Burkholderia glumae [2]; [9]", "result": 2, "unit": "%"},
      {"measurement": "percentage of flower clusters with score 5", "setting": "Burkholderia glumae [2]; [7]", "result": 2, "unit": "%"},
      {"measurement": "percentage of flower clusters with score 5", "setting": "Burkholderia glumae [2]; [8]", "result": 2, "unit": "%"},
      {"measurement": "percentage of flower clusters with score 5", "setting": "Burkholderia glumae [2]; [9]", "result": 1, "unit": "%"},
      {"measurement": "onset of Burkholderia glumae on rice", "setting": "Burkholderia glumae [2]; test liquid 50, 100 or 200 μM sprayed after the culture solution for infection", "result": "prevented"}
    ]}
  ]
}
